Assay results: paper PMC9697131, “Agomelatine, Ketamine and Vortioxetine Attenuate Energy Cell Metabolism—In Vitro Study” (International Journal of Molecular Sciences, 2022)

Experiments:
[1] = test system: complex IV (cytochrome c oxidase); experiment: Complex IV (cytochrome c oxidase) activity, spectrophotometric; format: biochemical; conditions: pig brain mitochondria, mean ± SD
Method: (§1) Pig brains were obtained from a slaughterhouse. Mitochondrial fraction isolation and purification from brain cortex were performed as previously described. Briefly, grey matter from pig brains was homogenized and crude mitochondrial fraction was isolated and then centrifuged on the sucrose gradient to obtain purified mitochondrial fraction. The freshly purified mitochondria were kept on ice until the assays were performed and were used for measurements of the mitochondrial oxygen consumption rate, measurements of ATP and ROS formation. Frozen mitochondria (stored at −70 °C) were used for the following enzyme activity measurements: ETC complexes, citrate synthase (CS) and malate dehydrogenase (MDH) activity.
(§2) Ultrasonication and incubation of mitochondria with the tested drugs for 30 min at 30 °C was performed before measurement with a corresponding drug-free control (DMSO) for every measurement. Mitochondrial enzymes activities were determined spectrophotometrically as absorbance using a GENESYS 180 UV-Vis Spectrophotometer (Thermo Fisher Scientific, Waltham, MA, USA).
The medium consisted of KH2PO4, and the reaction was initiated by reduced cyt c. The decrease in absorbance was measured at 550 nm for 3 min. The final protein concentration was 10 µg/mL and final drugs concentrations 10, 50 and 100 µM. Drug-free control (DMSO) was used as a control for each measurement.

citrate synthase (CS) = molecular target: T1, citrate synthase (CS) (Sus scrofa, UniProt P00889); experiment: Citrate synthase activity; format: biochemical, pig; conditions: mean, N=3
T1 construct: Frozen mitochondria (stored at −70 °C) were used for the following enzyme activity measurements: ETC complexes, citrate synthase (CS) and malate dehydrogenase (MDH) activity; from tissue; host or cells: pig brain cortex, purified mitochondrial fraction (frozen, sonicated)
T1 sequence (P00889 28-464): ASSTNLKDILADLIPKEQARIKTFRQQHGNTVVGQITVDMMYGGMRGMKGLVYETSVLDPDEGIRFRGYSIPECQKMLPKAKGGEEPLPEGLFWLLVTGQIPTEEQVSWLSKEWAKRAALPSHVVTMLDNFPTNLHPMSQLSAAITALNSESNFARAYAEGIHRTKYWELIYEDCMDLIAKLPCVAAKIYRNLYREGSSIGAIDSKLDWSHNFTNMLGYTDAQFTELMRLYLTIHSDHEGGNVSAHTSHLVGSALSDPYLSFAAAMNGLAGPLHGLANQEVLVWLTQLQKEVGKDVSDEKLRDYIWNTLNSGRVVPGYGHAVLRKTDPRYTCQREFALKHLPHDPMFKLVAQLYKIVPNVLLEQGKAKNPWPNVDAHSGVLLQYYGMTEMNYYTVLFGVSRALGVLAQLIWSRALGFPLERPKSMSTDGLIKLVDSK
Method: as §1, §2
The reaction mixture consisted of Triton, Tris, 5,5′-dithiobis-(2-nitrobenzoic) acid and acetyl coenzyme A. The reaction was started by adding oxaloacetate and the CS activity was measured by detecting the color change of 5,5′-dithiobis-(2-nitrobenzoic) acid at 412 nm with a duration of 3 min. […]

[2] = molecular target: T2, malate dehydrogenase (MDH) (Sus scrofa, UniProt P00346); experiment: Malate dehydrogenase activity; format: biochemical, pig; conditions: mean, N=3
T2 construct: Frozen mitochondria (stored at −70 °C) were used for the following enzyme activity measurements: ETC complexes, citrate synthase (CS) and malate dehydrogenase (MDH) activity; from tissue; host or cells: pig brain cortex, purified mitochondrial fraction (frozen, sonicated)
T2 sequence (P00346 25-338): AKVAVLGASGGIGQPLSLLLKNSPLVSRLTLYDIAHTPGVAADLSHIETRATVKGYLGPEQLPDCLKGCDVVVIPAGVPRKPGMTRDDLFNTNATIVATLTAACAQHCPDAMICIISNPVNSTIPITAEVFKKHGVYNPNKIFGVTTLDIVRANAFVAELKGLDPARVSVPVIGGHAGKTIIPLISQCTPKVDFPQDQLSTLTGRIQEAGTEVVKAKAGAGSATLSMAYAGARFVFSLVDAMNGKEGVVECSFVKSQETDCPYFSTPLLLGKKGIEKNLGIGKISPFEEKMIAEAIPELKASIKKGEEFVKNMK
Method: as §1, §2
The conversion of oxaloacetate to malate was used to measure the activity, and it was measured at 340 nm for 3 min. The reaction was initiated by adding oxaloacetate and nicotinamide adenine dinucleotide (NADH). […]

[3] = test system: total H2O2 content, pig brain mitochondria; experiment: Hydrogen peroxide production, Amplex Red; format: biochemical; conditions: for total H2O2 content (relative to control = 100%): mean ± SD
Method: as §1
Hydrogen peroxide formation was determined using an Amplex Red Hydrogen Peroxide/Peroxidase Assay Kit. The reaction mixture consisted of 27 mM HEPES (pH 7.4), 114 mM sucrose, 100 mM KCl, 1.3 mM K2HPO4, 5 mM malate, 5 mM pyruvate, 1 µM rotenone, 10 mM succinate, 0.75 mM MgCl2, […], 15 µM Amplex Red and horseradish peroxidase 0.09 U/ML. […] The reaction was stopped by the addition of antimycin A. The standard curve for hydrogen peroxide was prepared using H2O2 standard.

[4] = test system: complex II+III (succinate cytochrome c oxidoreductase); experiment: Complex II+III (succinate cytochrome c oxidoreductase) activity, spectrophotometric; format: biochemical; conditions: 100 μM drug; pig brain mitochondria; mean ± SD
Method: as §1, §2
The activity of complex II+III was measured with an antimycin A-sensitive cyt c reduction at 550 nm for 3 min, and it was initiated by the addition of cyt c. The medium consisted of KH2PO4, EDTA, KCN and rotenone. The final protein concentration was 50 µg/mL and final drugs concentrations 2.5, 5, 10, 50 and 100 µM. Drug-free control (DMSO) was used as a control for each measurement.

| Compound | complex IV activity (relative to control = 100%) ([1]; 10 μM drug) [%] | complex IV activity (relative to control = 100%) ([1]; 50 μM drug) [%] | complex IV activity (relative to control = 100%) ([1]; 100 μM drug) [%] | CS (% of Control) (citrate synthase (CS); 10 μM drug) | CS (% of Control) (citrate synthase (CS); 100 μM drug) | MDH (% of Control) ([2]; 10 μM drug) | MDH (% of Control) ([2]; 100 μM drug) | total H2O2 content (relative to control = 100%) ([3]; 10 μM drug) [%] | complex II+III activity (relative to control = 100%) [4] [%] | effect on total H2O2 production (in words) ([3]; 10, 50 and 100 µM) | total H2O2 content (relative to control = 100%) ([3]; 50 μM drug) [%] | total H2O2 content (relative to control = 100%) ([3]; 100 μM drug) [%] |
| --- | --- | --- | --- | --- | --- | --- | --- | --- | --- | --- | --- | --- |
| COc1ccc2cccc(CCNC(C)=O)c2c1 [agomelatine] | 45.0 ± 3.6 | 17.9 ± 3.4 | 12.8 ± 4.1 | 108.8 % of Control | 95.7 % of Control | 101.7 % of Control | 101.0 % of Control | 130.1 ± 2.7 | 94.9 ± 4.3 | – | – | – |
| CNC1(c2ccccc2Cl)CCCCC1=O (stereo not drawn) [ketamine] | – | – | 3.9 ± 3.0 | 107.3 % of Control | 97.4 % of Control | 97.4 % of Control | 101.7 % of Control | – | 93.6 ± 2.6 | no statistically significant effect | – | – |
| Cc1ccc(Sc2ccccc2N2CCNCC2)c(C)c1 [vortioxetine] | – | – | 9.3 ± 3.8 | 109.3 % of Control | * 96.9 % of Control | 106.9 % of Control | 100.2 % of Control | – | 43.9 ± 1.2 | – | 124.5 ± 2.5 | 85.4 ± 5.0 |
